{"source": "patent US20250382346A1", "about": "“NEURONAL PROMOTERS AND USES THEREOF” (priority 2023, published 2025)", "key": {"rM3Ds [1]": {"molecular_target": "T1, rM3Ds (Rattus norvegicus, UniProt P08483, A177S/A238G/A489L/DEL261-437/DEL441-478/E258S/I253V/I483M/INS256[…]/K178L/K182A/K255R/K484R/K486H/L173F/L482A/M480V/R171S/R176Q/R179M/S481M/T174R/T181R/T257A/Y148C)", "T1 sequence (P08483 with tags, fused parts or gaps Y148C/R171S/L173F/T174R/R176Q/A177S/K178L/R179M/T181R/K182A/A238G/I253V/K255R/INS256[…]/T257A/E258S/DEL261-437/DEL441-478/M480V/S481M/L482A/I483M/K484R/K486H/A489L)": "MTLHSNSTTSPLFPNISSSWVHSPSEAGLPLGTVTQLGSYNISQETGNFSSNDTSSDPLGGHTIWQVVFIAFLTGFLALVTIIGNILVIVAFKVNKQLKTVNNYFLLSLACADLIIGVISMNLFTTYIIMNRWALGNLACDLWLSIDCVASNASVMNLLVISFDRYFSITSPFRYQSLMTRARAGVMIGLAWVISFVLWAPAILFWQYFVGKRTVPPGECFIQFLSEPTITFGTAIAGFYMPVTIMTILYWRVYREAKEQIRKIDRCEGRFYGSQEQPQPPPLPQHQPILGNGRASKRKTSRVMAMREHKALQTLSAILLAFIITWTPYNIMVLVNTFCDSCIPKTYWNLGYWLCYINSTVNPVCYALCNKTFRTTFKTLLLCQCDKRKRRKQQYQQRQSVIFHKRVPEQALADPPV", "protocol": "Monkeys were continuously monitored by veterinarians after lesion.\nDyskinesia score criteria were: 0: Absent. 1: Mild, fleeting, present <30% of the observation period.\nEach block included ten continuous trials.\nCustomized surface EMG electrodes were used for EMG recordings. […] The recording procedure was conducted immediately after DCZ infusions."}, "[2]": {"experiment": "CSF concentration of DCZ by LC-MS", "conditions": "24 hours after drug infusion, 0.3 mg/kg i.m."}, "rM3Ds [3]": {"molecular_target": "T1, rM3Ds", "experiment": "In vivo electrophysiological recording in caudate/putamen of anesthetized macaques, rM3Ds", "parameters": "2A-EYFP (C); expressed in transfected cells; host or cells: neurons (striatal D1-MSNs) of mice or cynomolgus macaques, transduced in vivo by nigral AAV8R12-G88P7-rM3Ds-2A-EYFP", "conditions": "MPP+ lesioned macaques, CNO 36 cells, DCZ 31 cells", "protocol": "• Electrophysiological recording was performed through a recording chamber while the monkey was anesthetized. Neural responses were recorded by a 16-channel linear probe (Plexon Inc, Uprobe) driven by a mechanical microdrive (Alpha Omega, FlexMT). Signals were passed through a head stage (Plexon Inc, HST/16V-G20 LN) and then split and filtered between 300 Hz and 5 kHz to identify spiking activity with an amplifier system (Plexon Inc, OmniPlex). Detected spikes were then sorted by commercially available software (Plexon Inc, Offline Sorter) for further analysis. To quantify the effect of CNO/DCZ injection, neural activity was recorded for 60 minutes following CNO/DCZ injection. The response time-course for each channel was obtained by counting the spikes within every 10-minute window and then normalizing to the maximal.\nTo determine the effect of CNO/DCZ injection on the direction of signal change, we performed Pearson correlation between neural responses and time using the ‘corr’ function in Matlab, which generates the correlation coefficient ‘r’ and significant level ‘p’. A neuron was considered to have “Increased” activity when r>0 and p<0.05; and considered to have “Decreased” activity when r<0 and p<0.05. Otherwise, neurons were considered to be “Unchanged” in their neural activities. The responses of all increased neurons were then averaged after being normalized by the maximal response (Crowe et al., 2014; Dai and Wang, 2018; Hirokawa et al., 2019) following CNO/DCZ injection, and then plotted as a function of time to generate the normalized population response.\nTo enable in-vivo verification of the strategy via an opto-tagging approach, AAV virus encoding opsin ChR2 (AAV9-EF1α-DIO-ChR2-EYFP) was injected into the striatum with simultaneous nigral infusion of a retrograde AAV encoding Cre and rM3Ds (AAV8R12-G88P7-HA-rM3Ds-2A-Cre). A total volume of 27 μl (3 μl×9 sites) and 30 μl (3 μl×10 sites) were injected in the SNr and the striatum, respectively. A recording chamber was implanted above the striatum to allow optical stimulation and electrophysiological recording.\nOptogenetic verification was conducted six weeks after virus injections. A 16-channel linear probe with an embedded optic fiber (Plexon Inc., Uprobe) was used to deliver light stimulation and record neural responses. A mechanical Microdrive (FlexMT, Alpha Omega, Nazareth, Israel) was used to mount and drive the probe. A blue laser (473 nm, Changchun New Industries Tech, MBL-III-473) was used to generate light stimulation, which was controlled by a DAQ board (National Instruments, PCIe-6321) through the MonkeyLogic toolbox (NIMH version).\nLight pulses of 40 Hz that last for 500 ms were used to probe neurons' responses to optical stimulation. […] Responses from these optically identified cells were grouped to generate the normalized population response as a function of time."}, "[4]": {"experiment": "Locomotion test in naïve macaques (no viral injection)", "type": "in vivo", "conditions": "DCZ 0.3 mg/kg i.m."}, "[5]": {"experiment": "Blood test of liver- and kidney-related factors during DCZ treatment", "type": "in vivo, macaques", "conditions": "n=3 monkeys", "text": "FIG. 36A-36F depict effects of D1-MSN activation on dyskinesia-like behavior and health state-related blood factors in parkinsonian macaques. FIG. 36A illustrates quantitation of dyskinesia score at 2 months, 4 months, and 8 months after treatment with DCZ. n=3 monkeys per group.\nIntriguingly, many of the symptoms were greatly reversed after systemic deschloroclozapine (DCZ) administration. DCZ is a potent brain-penetrable agonist for rM3Ds with reduced off-targeting binding compared to CNO, and was administered to activate the DREADD system in the macaque brain."}, "[6]": {"tested_on": "MSNs in nucleus accumbens", "experiment": "Retrograde labeling of accumbal MSNs after delivery into ventral pallidum or lateral hypothalamus", "type": "in vivo, mice", "conditions": "stereotaxic delivery into ventral pallidum or lateral hypothalamus"}, "[7]": {"tested_on": "striatonigral projection neurons (D1 MSNs)", "experiment": "Retrograde labeling of striatal MSNs after AAV injection into the SNr, EYFP+ cell counting", "type": "in vivo, mice", "protocol": "To improve efficiency, multiple rounds of mutations of AAV capsids were performed on a series of different serotypes. Mutations were introduced at three sites in the AAV8 capsid protein to make AAV8R, including N385D, insertion of […] (SEQ ID NO: 31) at position 588, and TS711-7121N. Two additional mutations of V183E and N41 IS were incorporated into the AAV8R12 capsid protein (FIG. 1A). The labeling pattern of the AAV8R12 capsid and G88 promoter combination was determined.\nwas inserted at the N587-R588 position; two other point mutations of the AAV2 Cap protein were made to develop rAAV2-retro. Similar mutations were then placed at equivalent positions for four other AAV serotypes (FIGS. 1A-1C and 25, TABLE 1), AAV1/5/6/8 (FIG. 1A). […] When administered into the SNr, 4.86±0.22 times EYFP positive MSNs in mice infected by AAV8R-hSyn-EYFP were observed as compared to those infected by rAAV2-retro-hSyn-EYFP (FIG. 2A-2C).\nBaseline infectivity of rAAV2-retro was approximately 0.2±0.03×10^4 cells per striatal hemisphere (using a hSyn promoter) (TABLE 2). […] Compared to the current standard retrograde AAV, rAAV2-retro, AAV8R12 labeled 7.72±0.78-times more MSNs after nigral delivery (FIG. 2B-2C, TABLE 1). […] The AAV8R12 was generated using the AAV8R plasmid as a template.\nMice were anesthetized with sodium pentobarbital (Nembutal; 80 mg/kg, i.p.), and then placed into a stereotaxic device (KOPF). Eye cream was applied on both corneas to avoid dehydration. The skull above the targeted areas was thinned with a dental drill and carefully removed. Injections were conducted with a 10 μL syringe connected to a 33-Gauge needle (Neuros; Hamilton), using a microsyringe pump (Legato 130, KD Scientific). A total volume of 200 nL virus was injected into the SNr at a speed of 20 nL/min. The coordinates for the SNr were 3.4 mm posterior, 1.3 mm lateral, 4.8 mm ventral to the bregma.\nImages were acquired using a confocal microscope (Carl Zeiss, LSM880) and an Axiolmager. Z1 microscope with apotome (Carl Zeiss). Brain structures were identified microscopically and in digital photos using a mouse brain atlas. To analyze the number of EYFP+ cells in the striatum, slices from rostral to caudal striatum were used. Every sixth section was analyzed, and numbers of EYFP+ cells were multiplied by six to acquire the approximate total number and mean number of cells per animal. Images were processed using ImageJ (NIH, USA), and final quantifications were independently performed manually by two blinded experimenters."}}, "note": "Entries after “also recorded” stand apart in the source; their conditions may differ.", "data": [{"molecule": "CN1CCN(C2=Nc3ccccc3Nc3ccccc32)CC1", "note": "[DCZ, Deschloroclozapine]", "values": [{"measurement": "alleviation of parkinsonian symptoms during long-term treatment", "setting": "rM3Ds [1]; DCZ 0.3 mg/kg every other day", "value": "consistent during an 8-month continuous treatment"}, {"measurement": "reversal of parkinsonian symptoms (PD score)", "setting": "rM3Ds [1]; MPP+ macaques with AAV8R12-G88P7-rM3Ds-2A-EYFP, DCZ 0.3 mg/kg i.m., L-Dopa/benserazide 20/5 mg/kg/day oral", "value": "reversal of canonical parkinsonian symptoms in all tested monkeys; also recorded: comparable efficiency to L-Dopa"}, {"measurement": "motor skills (hand to mouth movement)", "setting": "rM3Ds [1]; MPP+ macaques, DCZ treatment", "value": "significant recovery of motor skills; also recorded: partially restored this motor skill"}, {"measurement": "tremor (EMG)", "setting": "rM3Ds [1]; MPP+ macaques, DCZ treatment", "value": "great reduced or even eliminated; also recorded: removed"}, {"measurement": "dyskinesia-like behaviors (dyskinesia score)", "setting": "rM3Ds [1]; MPP+ macaques, long-term treatment", "value": "dyskinesia-free"}, {"measurement": "window of efficacy after each dose (alleviating symptoms after drug administration)", "setting": "rM3Ds [1]; after the drug reached steady-state efficacy (FIG. 24C)", "value": "at least 24 hours"}, {"measurement": "speed of reversal of symptoms, DCZ compared with levodopa", "setting": "rM3Ds [1]; initial phase of drug administration", "value": "faster reversal of symptoms than levodopa; also recorded: reached stable efficacy faster than L-Dopa"}, {"measurement": "duration of effect (FIG. 18C)", "setting": "rM3Ds [1]; n=3 monkeys", "value": "over 24 hr"}, {"measurement": "effect of an extended period (4 months) of prior L-Dopa administration on DCZ treatment", "setting": "rM3Ds [1]; one month washout, then DCZ 2 months", "value": "did not affect the efficacy of DCZ treatment or the absence of dyskinesia"}, {"measurement": "DCZ level in cerebrospinal fluid", "setting": "[2]", "value": "no detectable levels"}, {"measurement": "cells in caudate/putamen activated (FIG. 15G)", "setting": "rM3Ds [3]; saline 17.9%", "value": 41.9, "unit": "%"}, {"measurement": "cells in caudate/putamen inactivated (FIG. 15G)", "setting": "rM3Ds [3]; saline 33.4%", "value": 9.7, "unit": "%"}, {"measurement": "cells in caudate/putamen unchanged (FIG. 15G)", "setting": "rM3Ds [3]; saline 48.7%", "value": 48.4, "unit": "%"}, {"measurement": "motor-related behaviors in naïve monkeys", "setting": "[4]", "value": "did not alter motor-related behaviors in naïve monkeys"}, {"measurement": "blood levels of common liver- and kidney-related factors (ALT, AST, GGT, CREA, BUN)", "setting": "[5]", "value": "remained stable"}]}, {"molecule": "AAV8R12: AAV8R capsid mutant V183E + N411S; Cap SEQ ID NO: 59 (protein) MAADGYLPDWLEDNLSEGIREWWALKPGAPKPKANQQKQDDGRGLVLPGYKYLGPFNGLDKGEPVNAADAAALEHDKAYDQQLQAGDNPYLRYNHADAEFQERLQEDTSFGGNLGRAVFQAKKRVLEPLGLVEEGAKTAPGKKRPVEPSPQRSPDSSTGIGKKGQQPARKRLNFGQTGDSESEPDPQPLGEPPAAPSGVGPNTMAAGGGAPMADNNEGADGVGSSSGNWHCDSTWLGDRVITTSTRTWALPTYNNHLYKQISNGTSGGATNDNTYFGYSTPWGYFDFNRFHCHFSPRDWQRLINNNWGFRPKRLSFKLFNIQVKEVTQNEGTKTIANNLTSTIQVFTDSEYQLPYVLGSAHQGCLPPFPADVFMIPQYGYLTLNDGSQAVGRSSFYCLEYFPSQMLRTGNSFQFTYTFEDVPFHSSYAHSQSLDRLMNPLIDQYLYYLSRTQTTGGTANTQTLGFSQGGPNTMANQAKNWLPGPCYRQQRVSTTTGQNNNSNFAWTAGTKYHLNGRNSLANPGIAMATHKDDEERFFPSNGILIFGKQNAARDNADYSDVMLTSEEEIKTTNPVATEEYGIVADNLQRGNLADQDYTKTARQAATADVNSQGALPGMVWQNRDVYLQGPIWAKIPHTDGNFHPSPLMGGFGLKHPPPQILIKNTPVPADPPTTFNQSKLNSFITQYSTGQVSVEIEWELQKENSKRWNPEIQYTSNYYKSINVDFAVNTEGVYSEPRPIGTRYLTRNL", "values": [{"measurement": "labeling of MSNs in nucleus accumbens", "setting": "[6]", "value": "robust labeling of MSNs"}, {"measurement": "Labeling Efficiency in Striatonigral Pathway", "setting": "[7]; AAV8R capsid mutants, numbers of labeled neurons per animal", "value": "+++ (10k-25k)"}, {"measurement": "EYFP positive / labeled MSNs compared to rAAV2-retro", "setting": "[7]; after nigral delivery, hSyn-EYFP", "value": "7.72±0.78", "unit": "times"}, {"measurement": "labeled striatonigral projection neurons (FIG. 2C), mean±SEM", "setting": "[7]; capsid comparison, injection into SNr of wild type mice, n=3 mice per group", "value": "16026±1654"}, {"measurement": "Mean (AAVs with capsid and promoter)", "setting": "[7]; labeled cells after nigral injection in mice, b188 refers to it as cells per striatal hemisphere, SD and SEM in own columns", "value": 16026}]}]}
